# In patent publication US20080312212A1, “Organic Compounds” (Novartis AG, priority 2005, published 2008):
# Where a name gives a salt, the structure may show the parent alone.
# Target: T1, epithelial sodium channel (ENaC) (Homo sapiens, UniProt P37088+P51168+P51170)
# T1 construct: host or cells: primary human bronchial epithelial cells (HBECs), differentiated at air-liquid interface
# T1 sequence (P37088 1-669): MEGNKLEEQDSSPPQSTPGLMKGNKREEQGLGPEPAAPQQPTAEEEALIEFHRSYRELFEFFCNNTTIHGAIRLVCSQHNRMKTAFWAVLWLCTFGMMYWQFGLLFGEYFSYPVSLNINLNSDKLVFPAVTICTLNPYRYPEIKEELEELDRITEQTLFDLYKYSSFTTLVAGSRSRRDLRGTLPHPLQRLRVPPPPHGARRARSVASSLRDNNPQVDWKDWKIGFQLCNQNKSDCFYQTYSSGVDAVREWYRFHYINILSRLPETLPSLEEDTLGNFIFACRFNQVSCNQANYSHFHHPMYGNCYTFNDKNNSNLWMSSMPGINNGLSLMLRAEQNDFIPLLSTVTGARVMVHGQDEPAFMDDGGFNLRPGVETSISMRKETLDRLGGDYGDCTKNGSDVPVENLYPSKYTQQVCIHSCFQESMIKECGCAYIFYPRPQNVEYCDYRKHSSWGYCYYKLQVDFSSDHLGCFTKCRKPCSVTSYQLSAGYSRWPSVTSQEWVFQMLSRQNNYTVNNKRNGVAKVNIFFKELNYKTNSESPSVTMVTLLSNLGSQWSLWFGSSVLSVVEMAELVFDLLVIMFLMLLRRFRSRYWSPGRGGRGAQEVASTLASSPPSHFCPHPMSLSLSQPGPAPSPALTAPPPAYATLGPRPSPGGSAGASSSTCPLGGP
# T1 sequence (P51168 1-640): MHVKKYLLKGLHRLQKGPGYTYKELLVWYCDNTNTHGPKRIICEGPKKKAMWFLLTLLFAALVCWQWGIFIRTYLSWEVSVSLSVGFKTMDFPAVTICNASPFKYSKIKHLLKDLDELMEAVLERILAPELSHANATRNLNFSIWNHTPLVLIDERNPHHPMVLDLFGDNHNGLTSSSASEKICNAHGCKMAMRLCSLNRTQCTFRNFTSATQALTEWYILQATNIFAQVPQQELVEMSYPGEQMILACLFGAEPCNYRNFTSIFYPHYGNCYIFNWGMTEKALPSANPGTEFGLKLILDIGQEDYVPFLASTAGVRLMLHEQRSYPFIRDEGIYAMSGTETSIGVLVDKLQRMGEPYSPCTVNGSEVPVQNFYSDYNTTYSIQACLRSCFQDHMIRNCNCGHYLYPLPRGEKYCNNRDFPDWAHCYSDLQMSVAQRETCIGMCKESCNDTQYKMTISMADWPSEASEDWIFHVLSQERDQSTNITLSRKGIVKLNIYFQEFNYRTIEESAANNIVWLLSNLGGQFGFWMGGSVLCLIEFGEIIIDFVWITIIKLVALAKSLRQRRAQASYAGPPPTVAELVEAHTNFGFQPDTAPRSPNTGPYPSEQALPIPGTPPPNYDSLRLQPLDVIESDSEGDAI
# T1 sequence (P51170 1-649): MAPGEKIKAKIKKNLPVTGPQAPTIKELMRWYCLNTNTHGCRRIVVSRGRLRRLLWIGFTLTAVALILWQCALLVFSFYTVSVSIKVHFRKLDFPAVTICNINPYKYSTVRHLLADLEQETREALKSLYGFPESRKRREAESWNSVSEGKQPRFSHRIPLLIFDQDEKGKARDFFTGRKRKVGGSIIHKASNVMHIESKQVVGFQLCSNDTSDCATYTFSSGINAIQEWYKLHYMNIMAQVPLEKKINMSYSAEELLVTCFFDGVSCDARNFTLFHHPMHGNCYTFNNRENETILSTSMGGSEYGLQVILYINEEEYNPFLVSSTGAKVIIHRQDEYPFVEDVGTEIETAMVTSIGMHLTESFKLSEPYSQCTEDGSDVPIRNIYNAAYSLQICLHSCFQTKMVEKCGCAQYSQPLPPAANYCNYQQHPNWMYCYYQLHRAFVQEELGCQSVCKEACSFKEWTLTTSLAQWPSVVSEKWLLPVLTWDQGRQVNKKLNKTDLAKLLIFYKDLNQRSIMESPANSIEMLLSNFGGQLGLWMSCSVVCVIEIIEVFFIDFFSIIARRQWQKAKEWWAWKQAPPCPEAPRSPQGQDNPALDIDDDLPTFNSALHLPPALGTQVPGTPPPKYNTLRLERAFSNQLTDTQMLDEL
# Test: Short circuit current (ISC) measurements in Human Bronchial Epithelial cells
# Assay type: cell-based
# Conditions: HBECs at air-liquid interface, Ussing chamber, apical addition; read-out: IC50 (inhibition of the amiloride-sensitive ISC)
# Protocol: Human Bronchial Epithelial cells (HBECs) (Cambrex) were cultured under air-liquid interface conditions to provide a well differentiated mucociliary phenotype.
# HBECs were cultured using a modification of the method described by Gray and colleagues
# (Gray et al., 1996). Cells were seeded in plastic T-162 flasks and were grown in bronchial epithelial cell growth medium (BEGM; Cambrex) supplemented with bovine pituitary extract (52 μg/mL), hydrocortisone (0.5 μg/mL), human recombinant epidermal growth factor ([…]), epinephrine (0.5 μg/mL), transferrin (10 μg/mL), insulin (5 μg/mL), retinoic acid (0.1 μg/mL), triiodothyronine ([…]), gentamycin (50 μg/mL) and amphotericin B (50 μg/mL). Medium was changed every 48 hours until cells were 90% confluent. Cells were then passaged and seeded (8.25×10^5 cells/insert) on polycarbonate Snapwell inserts (Costar) in differentiation media containing 50% DMEM in BEGM with the same supplements as above but without triiodothyronine and a final retinoic acid concentration of 50 nM (all-trans retinoic acid). Cells were maintained submerged for the first 7 days in culture, after which time they were exposed to an apical air interface for the remainder of the culture period. At this time, media was changed to DMEM:F12 media containing 2% v/v Ultroser G for the remainder of culture. Amphotericin B was removed from all media 3 feeds prior to use in the Ussing Chambers. Cells were used between days 7 and 21 after establishment of the apical-air interface. At all stages of culture, cells were maintained at 37° C. in 5% CO2 in an air incubator.
# Snapwell inserts were mounted in Vertical Diffusion Chambers (Costar) and were bathed with continuously gassed Ringer solution (5% CO2 in O2; pH 7.4) maintained at 37° C. containing (in mM): 120 NaCl, 25 NaHCO3, 3.3 KH2PO4, 0.8 K2HPO4, 1.2 CaCl2, 1.2 MgCl2, and 10 glucose. The solution osmolarity was between 280 and 300 mOsmol/kg H2O for all physiological salt solutions used. Cells were voltage clamped to 0 mV (model EVC4000; WPI). RT was measured by applying a 1- or 2-mV pulse at 30-s intervals and calculating RT by Ohm's law. Data were recorded using a PowerLab workstation (ADInstruments).
# Test compounds were prepared as a 10 mM stock solution in DMSO (95%). Serial 3-fold dilutions were freshly prepared in an appropriate vehicle (distilled H2O or Ringers solution). […] At the completion of the concentration-response experiment, amiloride (10 μM) was added into the apical chamber to enable the total amiloride-sensitive current to be measured. […]
# Results are expressed as the mean % inhibition of the amiloride-sensitive ISC. […] Cell inserts were typically run in duplicate and the IC50 calculated on the mean % inhibition data.
row,IC50 [nM],Compound
1,16.4,N=C(NCCCCCCNS(=O)(=O)c1cccc2ccccc12)NC(=O)c1nc(Cl)c(N)nc1N [Example 3]
2,33,"COC(=O)[C@H](CCCCNC(=N)NC(=O)c1nc(Cl)c(N)nc1N)NS(=O)(=O)c1ccc(C)cc1 [Example 17, (S)-6-[N′-(3,5-Diamino-6-chloro-pyrazine-2-carbonyl)-guanidino]-2-(toluene-4 sulfonylamino)-hexanoic acid methyl ester trifluoroacetate]"
3,18,N=C(NCCCCNC(=O)Cc1ccccc1)NC(=O)c1nc(Cl)c(N)nc1N [Example 25]

row,Compound,IC50 [nM]
1,N=C(NCCCC(=O)N(Cc1ccccc1)[C@H]1CC2CC[C@H](C1)N2Cc1ccccc1)NC(=O)c1nc(Cl)c(N)nc1N [Example 12],65.9
